Drawing on patent US20040034078A1 (Agouron Pharmaceuticals, Inc., priority 2002, published 2004), this text covers Ki for 39 compounds.

Sequence of purified PARP protein (P09874 whole entry): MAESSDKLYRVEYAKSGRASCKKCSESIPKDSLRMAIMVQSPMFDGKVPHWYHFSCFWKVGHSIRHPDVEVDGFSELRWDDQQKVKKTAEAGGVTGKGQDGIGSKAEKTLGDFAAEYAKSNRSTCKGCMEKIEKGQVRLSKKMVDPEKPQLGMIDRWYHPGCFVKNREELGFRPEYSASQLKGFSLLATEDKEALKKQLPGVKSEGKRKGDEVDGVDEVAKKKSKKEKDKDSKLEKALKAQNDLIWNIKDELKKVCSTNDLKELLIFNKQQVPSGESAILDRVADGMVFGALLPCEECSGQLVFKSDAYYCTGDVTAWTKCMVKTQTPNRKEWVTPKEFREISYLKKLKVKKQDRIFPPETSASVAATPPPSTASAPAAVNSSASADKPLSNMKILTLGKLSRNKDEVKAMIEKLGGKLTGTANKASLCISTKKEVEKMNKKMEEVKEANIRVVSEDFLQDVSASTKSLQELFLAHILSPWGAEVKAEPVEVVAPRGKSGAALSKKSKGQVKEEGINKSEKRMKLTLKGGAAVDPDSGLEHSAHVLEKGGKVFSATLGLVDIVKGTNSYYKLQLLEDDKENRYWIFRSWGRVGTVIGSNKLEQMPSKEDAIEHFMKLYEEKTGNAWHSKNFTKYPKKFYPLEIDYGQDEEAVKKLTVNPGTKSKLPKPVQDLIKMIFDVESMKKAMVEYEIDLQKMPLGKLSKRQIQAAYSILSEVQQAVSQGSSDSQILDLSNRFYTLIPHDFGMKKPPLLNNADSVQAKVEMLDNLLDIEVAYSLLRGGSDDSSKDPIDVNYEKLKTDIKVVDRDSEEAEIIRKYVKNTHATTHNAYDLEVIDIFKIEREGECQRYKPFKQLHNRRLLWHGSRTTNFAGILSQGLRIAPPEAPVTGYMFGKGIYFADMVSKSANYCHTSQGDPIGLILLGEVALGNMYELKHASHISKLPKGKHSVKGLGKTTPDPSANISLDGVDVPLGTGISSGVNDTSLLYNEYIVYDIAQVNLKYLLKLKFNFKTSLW

In the assay the target is purified PARP protein (Homo sapiens, UniProt P09874). The assay can be described thus: PARP Enzyme Inhibition Assay. It counts as biochemical. The settings on record: [32P]NAD+ incorporation, 500 μM NAD+, 25° C.; competitive inhibition fit; read-out: Inhibition Constant Ki. The protocol:
The PARP enzyme-inhibiting activities of test compounds were assayed as described by Simonin et al. (J. Biol. Chem. (1993), 268:8529-8535) and Marsischky et al. (J. Biol. Chem. (1995), 270:3247-3254) with minor modifications as follows. Samples (50 μL) containing 20 nM purified PARP protein, 10 μg/mL DNAse I-activated calf thymus DNA (sigma), 500 μM NAD^+, 0.5 μCi [^32P]NAD^+, 2% DMSO, and various concentrations of test compounds were incubated in sample buffer (50 mM Tris pH 8.0, 10 mM MgCl2, 1 mM tris(carboxyethyl)phosphine HCl) at 25° C. for 5 minutes. Under these conditions, the reaction rate was linear for times up to 10 minutes. The reaction was stopped by the addition of an equal volume of ice-cold 40% trichloroacetic acid to the samples, which were then incubated on ice for 15 minutes. The samples were then transferred to a Bio-Dot microfiltration apparatus (BioRad), filtered through Whatman GF/C glass-fiber filter paper, washed 3 times with 150 μL of wash buffer (5% trichloroacetic acid, 1% inorganic pyrophosphate), and dried. [^32P]ADP-Ribose incorporation into the acid-insoluble material was quantitated using a PhosphorImager (Molecular Dynamics) and ImageQuant software. Inhibition constants (Ki) were calculated by non-linear regression analyses using the velocity equation for competitive inhibition (Segel, Enzyme Kinetics: Behavior and Analysis of Rapid Equilibrium and Steady-State Enzyme Systems, John Wiley & Sons, Inc., New York (1975), 100-125). In the case of tight-binding inhibitors, 5 nM enzyme was used and the reaction was incubated at 25° C. for 25 minutes. Ki values for tight-binding inhibitors were calculated using the equation described by Sculley et al. (Biochim. Biophys. Acta (11986), 874:44-53).
Regarding `NC(=O)c1cccc2[nH]c(CN3CCC(N)C3)nc12` (stereo not drawn) [Compound 22, 2-(3-Amino-pyrrolidin-1-ylmethyl)-1H-benzimidazole-4-carboxylic Acid Amide], the Ki worked out at 17 nM. To `CC(=O)Nc1nnc(SCc2nc3c(C(N)=O)cccc3[nH]2)s1` [Compound 5, 2-(5-Acetylamino-[1,3,4]thiadiazol-2-ylsulfanylmethyl)-1H-benzimidazole-4-carboxylic Acid Amide] belongs 11 ± 1 nM; to `COC(=O)Nc1ccc(S(=O)(=O)Cc2nc3c(C(N)=O)cccc3[nH]2)cc1` [Compound 37, [4-(4-Carbamoyl-1H-benzoimidazol-2-ylmethanesulfonyl)-phenyl]-carbamic Acid Methyl Ester], 28.5 ± 0.5 nM. With `CN(CCc1ccccc1)c1nc2c(C(N)=O)cccc2[nH]1` [Compound 54, 2-(Methyl-phenethyl-amino)-1H-benzoimidazole-4-carboxylic Acid Amide], the Ki was found to be 35 ± 6 nM. With `NC(=O)c1cccc2[nH]c(CSc3ccc(NC(=O)OCc4ccccc4)cc3)nc12` [Compound 25] the figure was 39 nM.

Consider `NC(=O)c1cccc2[nH]c(NCc3ccccc3)nc12` [Compound 58, 2-Benzylamino-1H-benzoimidazole-4-carboxylic Acid Amide], for which the Ki stood at 66 ± 8 nM. As for `NC(=O)c1cccc2[nH]c(NCCc3cnc[nH]3)nc12` [Compound 61, 2-[2-(3H-Imidazol-4-yl)-ethylamino]-1H-benzoimidazole-4-carboxylic Acid Amide], the inhibitory constant (Ki) was 12 ± 1 nM. In the case of `NC(=O)c1cccc2[nH]c(NCCc3cccs3)nc12` [Compound 60, 2-(2-Thiophen-2-yl-ethylamino)-1H-benzoimidazole-4-carboxylic Acid Amide], the Ki came to 81 ± 10 nM.

For `NC(=O)c1cccc2[nH]c(CSCCN3CCc4ccccc4C3)nc12` [Compound 46, 2-[2-(3,4-Dihydro-1H-isoquinolin-2-yl)-ethylsulfanylmethyl]-1H-benzoimidazole-4-carboxylic Acid Amide], the Ki is 33 ± 3 nM.

Turning to `CCN(CC)CCNc1nc2c(C(N)=O)cccc2[nH]1` [Compound 59, 2-(2-Diethylamino-ethylamino)-1H-benzoimidazole-4-carboxylic Acid Amide], the inhibition constant (Ki) was 23 ± 4 nM. As to `NC(=O)c1cccc2[nH]c(N)nc12` [Compound 56, 2-Amino-1H-benzoimidazole-4-carboxylic Acid Amide], the Ki amounted to 319 ± 36 nM. For `NC(=O)c1cccc2[nH]c(SCc3ccccc3)nc12` [Compound 40, 2-Benzylsulfanyl-1H-benzimidazole-4-carboxylic Acid Amide], the Ki amounted to 70 ± 15 nM. To `CCCCCCCS(=O)(=O)Cc1nc2c(C(N)=O)cccc2[nH]1` [Compound 31, 2-(Heptane-1-sulfonylmethyl)-1H-benzimidazole-4-carboxylic Acid Amide] belongs 61 ± 10 nM.

For `NC(=O)Nc1ccc(S(=O)(=O)Cc2nc3c(C(N)=O)cccc3[nH]2)cc1` [Compound 39, 2-(4-Ureido-benzenesulfonylmethyl)-1H-benzoimidazole-4-carboxylic Acid Amide], the Ki was found to be 29.5 ± 2.5 nM. To `NC(=O)c1cccc2[nH]c(CS(=O)(=O)c3ccc(N4C(=O)CNC4=O)cc3)nc12` [Compound 51, 2-[4-(2,5-Dioxo-imidazolidin-1-yl)-benzenesulfonylmethyl]-1H-benzoimidazole-4-carboxylic Acid Amide] belongs 24 ± 3 nM; to `COC(=O)Nc1ccc(SCc2nc3c(C(N)=O)cccc3[nH]2)cc1` [Compound 26], 38 ± 1 nM; to `NC(=O)c1cccc2[nH]c(CSc3nc4ccccc4s3)nc12` [Compound 2, 2-(Benzothiazol-2-ylsulfanylmethyl)-1H-benzimidazole-4 carboxylic Acid Amide], 12 nM. With `NC(=O)c1cccc2c1nc1n2CCSC1` [Compound 47, 3,4-Dihydro-1H-2-thia-4a,9-diaza-fluorene-8-carboxylic Acid Amide], the Ki is 93 ± 10 nM. With `CN(Cc1nc2c(C(N)=O)cccc2[nH]1)c1ccccc1` [Compound 20, 2-[(Methyl-phenyl-amino)-methyl]-1H-benzimidazole-4-carboxylic Acid Amide] the figure was 14 ± 3 nM. On to `CNCCN(C)Cc1nc2c(C(N)=O)cccc2[nH]1` [Compound 23, 2-{[Methyl-(2-methylamino-ethyl)-amino]-methyl}-1H-benzimidazole-4-carboxylic Acid Amide], for which the Ki is 14 nM. To `NC(=O)c1cccc2[nH]c(CNC3CN4CCC3CC4)nc12` (stereo not drawn) [Compound 21, 2-[(1-Aza-bicyclo[2.2.2]oct-3-ylamino)-methyl]-1H-benzimidazole-4-carboxylic Acid Amide] belongs 9 ± 2 nM; to `CN(C)c1nc2c(C(N)=O)cccc2[nH]1` [Compound 57, 2-Dimethylamino-1H-benzoimidazole-4-carboxylic Acid Amide], 44 ± 4 nM. `CSc1nc2c(C(N)=O)cccc2[nH]1` [Compound 52, 2-Methylsulfanyl-3H-benzoimidazolc-4-carboxylic Acid Amide]: the Ki was found to be 27 ± 4 nM. With `NC(=O)c1cccc2[nH]c(CSc3ccc(N)cc3)nc12` [Compound 10, 2-(4-Amino-phenylsulfanylmethyl)-1H-benzimidazole-4-carboxylic Acid Amide], the Ki is 17 ± 1 nM.

Turning to `NC(=O)c1cccc2[nH]c(S(=O)(=O)Cc3ccccc3)nc12` [Compound 41, 2-Phenylmethansulfonyl-1H-benzimidazole-4-carboxylic Acid Amide], the Ki is 800 nM.

`CCC(=O)Nc1ccc(S(=O)(=O)Cc2nc3c(C(N)=O)cccc3[nH]2)cc1` [Compound 36, 2-(4-Propionylamino-benzenesulfonylmethyl)-1H-benzimidazole-4-carboxylic Acid Amide]: the Ki amounted to 17.8 ± 0.8 nM. With `NC(=O)c1cccc2[nH]c(CSCCN3CCOCC3)nc12` [Compound 45, 2-(2-Morpholin-4-yl-ethylsulfanylmethyl)-1H-benzimidazole-4-carboxylic Acid Amide], the inhibitory constant (Ki) was found to be 48 ± 1 nM. With `NC(=O)c1cccc2[nH]c(CSc3ccc([N+](=O)[O-])cc3)nc12` [Compound 3, 2-(4-Nitro-phenylsulfanylmethyl)-1H-benzimidazole-4-carboxylic Acid Amide] the figure was 8 nM; with `COc1ccc(SCc2nc3c(C(N)=O)cccc3[nH]2)cc1` [Compound 8, 2-(4-Methoxy-phenylsulfanylmethyl)-1H-benzimidazole-4-carboxylic Acid Amide], 9 ± 1 nM; with `NC(=O)c1cccc2[nH]c(CSc3nnc(-c4ccccc4)o3)nc12` [Compound 6, 2-(5-Phenyl-[1,3,4]oxadiazol-2-ylsulfanylmethyl)-1H-benzimidazole-4-carboxylic Acid Amide], 102 nM. For `COc1ccc(CSc2nc3c(C(N)=O)cccc3[nH]2)cc1` [Compound 43, 2-(4-Methoxy-benzylsulfanyl)-1H-benzimidazole-4-carboxylic Acid Amide], the Ki was found to be 6.5 ± 1.5 nM. Take `NC(=O)c1cccc2[nH]c(CNCCCN3CCCC3)nc12` [Compound 16, 2-[(3-Pyrrolidin-1-yl-propylamino)-methyl]-1H-benzimidazole-4-carboxylic Acid Amide]: the Ki came out at 15 ± 3 nM. Take `CCCCCCCSCc1nc2c(C(N)=O)cccc2[nH]1` [Compound 11, 2-Heptylsulfanylmethyl-1H-benzimidazole-4-carboxylic Acid Amide]: the Ki was 33 ± 6 nM. With `CN(C)c1ccc(SCc2nc3c(C(N)=O)cccc3[nH]2)cc1` [Compound 12, 2-(4-Dimethylamino-phenylsulfanylmethyl)-1H-benzimidazole-4-carboxylic Acid Amide] the figure was 91 ± 3 nM.

Turning to `CSc1ccc(SCc2nc3c(C(N)=O)cccc3[nH]2)cc1` [Compound 14, 2-(4-Methylsulfanyl-phenylsulfanylmethyl)-1H-benzimidazole-4-carboxylic Acid Amide], the Ki was 11 ± 2 nM. Take `NC(=O)c1cccc2[nH]c(CSc3ccc(O)cc3)nc12` [Compound 4, 2-(4-Hydroxy-phenylsulfanylmethyl)-1H-benzimidazole-4-carboxylic Acid Amide]: the Ki was determined as 13 nM. On to `NC(=O)c1cccc2[nH]c(CSc3ccc(C(F)(F)F)cc3)nc12` [Compound 13, 2-(4-Trifluoromethyl-phenylsulfanylmethyl)-1H-benzimidazole-4-carboxylic Acid Amide], for which the Ki stood at 39 ± 5 nM.

With `NC(=O)c1cccc2[nH]c(SCc3ccc([N+](=O)[O-])cc3)nc12` [Compound 44, 2-(4-Nitro-benzylsulfanyl)-1H-benzimidazole-4-carboxylic Acid Amide], the Ki is 4.7 ± 0.2 nM. Turning to `CNc1nc2c(C(N)=O)cccc2[nH]1` [Compound 55, 2-Methylamino-1H-benzoimidazole-4-carboxylic Acid Amide], the Ki was determined as 85 ± 8 nM.
